Biological target: Proto-oncogene tyrosine-protein kinase Src (Mus musculus, UniProt P05480)
Assay: Kinase Assay
Experimental: 2,6,9-Trisubstituted purines were evaluated for their src kinase inhibitory activities using an ELISA assay.

Proto-oncogene tyrosine-protein kinase Src, sequence (P05480 2-535 limits assumed): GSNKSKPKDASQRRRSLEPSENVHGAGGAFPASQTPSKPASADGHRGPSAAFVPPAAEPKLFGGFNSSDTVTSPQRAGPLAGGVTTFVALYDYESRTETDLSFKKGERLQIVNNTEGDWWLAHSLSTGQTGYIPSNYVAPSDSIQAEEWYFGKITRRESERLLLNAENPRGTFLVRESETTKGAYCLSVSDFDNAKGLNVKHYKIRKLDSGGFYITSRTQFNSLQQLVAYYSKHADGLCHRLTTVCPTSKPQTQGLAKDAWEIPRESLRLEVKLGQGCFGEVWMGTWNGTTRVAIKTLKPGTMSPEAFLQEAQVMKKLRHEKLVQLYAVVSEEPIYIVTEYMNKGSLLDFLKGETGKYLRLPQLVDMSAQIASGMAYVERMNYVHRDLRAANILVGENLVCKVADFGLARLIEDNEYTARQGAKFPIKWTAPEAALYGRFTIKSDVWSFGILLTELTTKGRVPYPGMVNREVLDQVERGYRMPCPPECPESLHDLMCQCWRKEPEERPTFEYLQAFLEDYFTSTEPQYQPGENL

SMILES | IC50 [nM]
CCn1cnc2c(Nc3ccc(P(=O)(O)CP(=O)(O)O)cc3)nc(C3CCNCC3)nc21 [2,6,9-Trisubstituted Purine, 4] | 665
CCn1cnc2c(Nc3ccc(P(=O)(O)CP(=O)(O)O)cc3)nc(CC3CCNCC3)nc21 [2,6,9-Trisubstituted Purine, 5] | 2310
CCn1cnc2c(Nc3ccc(P(=O)(O)CP(=O)(O)O)cc3)nc(CCC3CCNCC3)nc21 [2,6,9-Trisubstituted Purine, 6] | 1010
CCn1cnc2c(Nc3ccc(P(=O)(O)CP(=O)(O)O)cc3)nc(CC3CCCNC3)nc21 (stereo not drawn) [2,6,9-Trisubstituted Purine, 7] | 2300
CCn1cnc2c(Nc3ccc(P(=O)(O)CP(=O)(O)O)cc3)nc(CCCCN)nc21 [2,6,9-Trisubstituted Purine, 11] | 2110

Now those with a lower IC50, led by results:

IC50 [nM] | SMILES
205 | CCn1cnc2c(Nc3ccc(P(=O)(O)CP(=O)(O)O)cc3)nc(C[C@H]3CC[C@H](N)CC3)nc21 [2,6,9-Trisubstituted Purine, 9]
101 | CCn1cnc2c(Nc3ccc(P(=O)(O)CP(=O)(O)O)cc3)nc(C[C@H]3CC[C@@H](N)CC3)nc21 [2,6,9-Trisubstituted Purine, 10]
73 | CCn1cnc2c(Nc3ccccc3)nc([C@H]3CC[C@H](N)CC3)nc21 [2,6,9-Trisubstituted Purine, AP23517]
